Test results: patent US6291485A, “4,5-dihydro-[1H]-benz[g]indazole-3-carboxylic acid derivatives” (Teikoku Hormone Mfg. Co., Ltd., priority 1997, dated 2001)

Experiments:
ETB receptor = target: T1, ETB receptor (Homo sapiens, UniProt P24530); assay: binding of 125I-ET-1 to crude receptor membrane fraction from the human placenta (ETB); conditions: human placenta membranes, 125I-ET-1, 25° C., 120 minutes, pH 7.0
T1 construct: a crude receptor membrane fraction from the human placenta; from tissue; host or cells: human placenta, crude membrane fraction
T1 sequence (P24530 27-442): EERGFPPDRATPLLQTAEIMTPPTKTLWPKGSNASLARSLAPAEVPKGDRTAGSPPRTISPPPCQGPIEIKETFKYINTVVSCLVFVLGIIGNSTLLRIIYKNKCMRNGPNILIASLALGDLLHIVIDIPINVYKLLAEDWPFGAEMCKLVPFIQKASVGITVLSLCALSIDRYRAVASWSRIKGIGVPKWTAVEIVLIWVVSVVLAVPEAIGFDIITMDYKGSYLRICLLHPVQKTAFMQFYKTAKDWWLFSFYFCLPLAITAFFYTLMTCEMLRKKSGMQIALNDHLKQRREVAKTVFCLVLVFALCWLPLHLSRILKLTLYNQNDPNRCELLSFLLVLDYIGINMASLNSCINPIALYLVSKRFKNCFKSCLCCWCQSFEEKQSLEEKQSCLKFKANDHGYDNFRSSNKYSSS
Procedure: (§1) (1) Measurement of Antagonism to Endothelin Receptors
(§2) Among the endothelin (ET) receptor subtypes, the binding of ET to the ETA and ETB subtypes was measured by using a crude receptor membrane fraction from the porcine thoracic aorta and a crude receptor membrane fraction from the human placenta, respectively. The tissue (about 40 g) as washed, minced with scissors, and homogenized in 4 volumes of solution A [20 mM HEPES (N-2-hydroxyethylpiperazine-N'-2-ethanesulfonic acid), 3 mM EGTA (ethylene glycol bis(β-aminoethyl ether)-N,N,N',N'-tetraacetic acid), 5 mM EDTA (ethylenediaminetetraacetic acid), 2 μg/ml aprotinin, 3 μg/ml leupeptin, 3 μg/ml pepstatin A, 0.25 mg/ml bacitracin, 0.25 M sucrose] by means of an Ultra-turrax. The resulting homogenate was centrifuged at 8,000 g for 20 minutes, and the supernatant was further centrifuged at 80,000 g for 60 minutes. The precipitate was suspended in solution A and used as a crude receptor membrane fraction, which was divided into portions and stored in a frozen state at -70° C. As a radioligand, 325 Bq of ^125 I-ET-1 (81.4 TBq/mmol; manufactured by DuPont-New England Nuclear, Boston, Mss., U.S.A) was placed in a test tube. Then, the crude receptor membrane fraction (20 μg as protein) and a test compound were added thereto. Nonspecific binding was measured by the addition of 125 nM ET-1. The reaction was carried out in solution B [30 mM HEPES, 0.15 M NaCl, 5 mM MgCl2, 0.5 mg/ml bacitracin, 1 mg/ml bovine serum albumin, pH 7.0) at 25° C. for 120 minutes. In order to separate the free radioactive ligand from the membrane-bound one, the reaction mixture was quickly filtered through a glass filter treated with 0.3% polyethylene-imine (GF/C; manufactured by Whatman Inc., U.S.A.) and washed twice with ice-cold solution B. Thereafter, the radioactivity remaining on the filter was measured with a gamma counter.

ETA receptor = target: T2, ETA receptor (Sus scrofa, UniProt Q29010); assay: binding of 125I-ET-1 to crude receptor membrane fraction from the porcine thoracic aorta (ETA); conditions: porcine thoracic aorta membranes, 125I-ET-1, 25° C., 120 minutes, pH 7.0
T2 construct: crude receptor membrane fraction from the porcine thoracic aorta; from tissue; host or cells: porcine thoracic aorta, crude membrane fraction
T2 sequence (Q29010 21-427): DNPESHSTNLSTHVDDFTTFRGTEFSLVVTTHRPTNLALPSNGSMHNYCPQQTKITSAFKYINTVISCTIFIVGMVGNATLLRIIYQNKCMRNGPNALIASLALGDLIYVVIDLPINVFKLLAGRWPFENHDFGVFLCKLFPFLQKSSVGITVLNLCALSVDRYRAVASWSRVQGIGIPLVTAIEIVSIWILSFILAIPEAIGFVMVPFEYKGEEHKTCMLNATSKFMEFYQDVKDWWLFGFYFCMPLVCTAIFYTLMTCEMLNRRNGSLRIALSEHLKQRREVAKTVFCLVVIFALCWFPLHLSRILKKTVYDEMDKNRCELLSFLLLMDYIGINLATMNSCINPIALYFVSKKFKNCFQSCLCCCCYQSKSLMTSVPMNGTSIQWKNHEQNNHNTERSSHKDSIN
Procedure: as §1, §2

endothelin receptors = assay: antagonism to endothelin receptors (statement in words, no subtype); assay type: binding
Procedure: as §1
as §2, with “The precipitate was suspended in solution A and used as a crude receptor membrane fraction, which was divided into portions and stored in a frozen state at -70° C. As a radioligand, 325 Bq of ^125 I-ET-1 (81.4 TBq/mmol; manufactured by DuPont-New England Nuclear, Boston, Mss., U.S.A) was placed in a test tube. Then, the crude receptor membrane fraction (20 μg as protein) and a test compound were added thereto.” left out, “The reaction was carried out in solution B [30 mM HEPES, 0.15 M NaCl, 5 mM MgCl2, 0.5 mg/ml bacitracin, 1 mg/ml bovine serum albumin, pH 7.0) at 25° C. for 120 minutes.” left out

phosphodiesterase III = target: T3, phosphodiesterase III (Cavia porcellus, UniProt H0VIU9); assay: inhibitory effect on phosphodiesterase III ([3H] cAMP conversion, enzyme fraction from guinea pig hearts); assay type: biochemical; conditions: for IC50: guinea pig heart enzyme, 0.1 μM [3H] cAMP, 30° C., 10 minutes, pH=8.0; for inhibitory effect on phosphodiesterase III: statement in words
T3 construct: hearts excised from male Hartley strain guinea pigs (400-600 g); from tissue; host or cells: guinea pig heart, 40,000 g supernatant, DEAE-cellulose fraction
T3 sequence (H0VIU9 1-1132): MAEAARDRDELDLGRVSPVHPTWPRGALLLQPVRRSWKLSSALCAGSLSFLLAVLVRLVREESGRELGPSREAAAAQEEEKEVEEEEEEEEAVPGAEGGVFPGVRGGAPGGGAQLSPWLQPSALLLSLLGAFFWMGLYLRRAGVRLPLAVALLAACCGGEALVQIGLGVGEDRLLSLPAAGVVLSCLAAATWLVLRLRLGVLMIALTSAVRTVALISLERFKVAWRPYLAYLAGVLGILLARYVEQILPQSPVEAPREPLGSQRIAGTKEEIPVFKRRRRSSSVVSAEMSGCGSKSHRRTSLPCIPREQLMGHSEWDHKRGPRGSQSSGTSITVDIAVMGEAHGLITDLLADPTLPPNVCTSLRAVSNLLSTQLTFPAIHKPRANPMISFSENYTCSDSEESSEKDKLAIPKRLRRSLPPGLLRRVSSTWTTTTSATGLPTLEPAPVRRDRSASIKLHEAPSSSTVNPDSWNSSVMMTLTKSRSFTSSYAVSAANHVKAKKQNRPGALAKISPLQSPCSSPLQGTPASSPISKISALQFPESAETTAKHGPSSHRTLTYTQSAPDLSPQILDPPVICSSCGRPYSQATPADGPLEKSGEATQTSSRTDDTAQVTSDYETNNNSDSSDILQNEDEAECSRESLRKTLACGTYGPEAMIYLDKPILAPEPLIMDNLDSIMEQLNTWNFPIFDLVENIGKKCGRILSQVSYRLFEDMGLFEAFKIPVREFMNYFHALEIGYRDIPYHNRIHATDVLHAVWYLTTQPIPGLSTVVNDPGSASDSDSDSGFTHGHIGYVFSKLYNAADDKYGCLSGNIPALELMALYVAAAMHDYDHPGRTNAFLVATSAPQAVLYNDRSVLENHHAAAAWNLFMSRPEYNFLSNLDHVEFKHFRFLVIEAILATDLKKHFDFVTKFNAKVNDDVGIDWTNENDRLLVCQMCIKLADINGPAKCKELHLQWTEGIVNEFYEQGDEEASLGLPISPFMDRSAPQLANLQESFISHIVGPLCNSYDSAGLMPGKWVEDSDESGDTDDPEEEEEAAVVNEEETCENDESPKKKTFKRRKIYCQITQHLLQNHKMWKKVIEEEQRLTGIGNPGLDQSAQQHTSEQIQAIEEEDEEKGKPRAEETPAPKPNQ
Procedure: Phosphodiesterase III was prepared according to the method of Frodsham et al. (Eur. J. Pharmacol., Vol. 211, pp. 383-391, 1992).
Specifically, hearts excised from male Hartley strain guinea pigs (400-600 g) were placed in 8 volumes of solution C [10 mM trishydroxymethyl)aminomethane-acetic acid buffer (pH=7.5), 2 mM magnesium chloride, 1 mM dithiothreitol, 2,000 units/ml aprotinin, 50 μM phenylmethylsulfonyl fluoride], minced with scissors, and homogenized three times for 10 seconds by means of a Polytron. The resulting homogenate was centrifuged at 40,000 g for 30 minutes, and the supernatant was applied onto a DEAE-cellulose column and eluted with a linear concentration gradient ranging from 0.2 M to 0.6 M sodium acetate (pH 6.5). The fractions eluted at 0.4-0.5 M were pooled and used as a phosphodiesterase III enzyme fraction.
Specifically, a test compound and the phosphodiesterase III enzyme fraction were added to 0.4 ml of a reaction solution [40 mM tris(hydroxymethyl)aminomethane-hydrochloric acid buffer (pH=8.0), 5 mM magnesium chloride, 1 mM dithiothreitol, 0.1 μM [^3 H] cAMP]. This mixture was reacted at 30° C. for 10 minutes. After completion of the reaction, 5'-nuclease was added thereto so as to convert [^3 H] 5'-AMP, which was the reaction product with phosphodiesterase III, to [^3 H] adenosine. Then, the [^3 H] cAMP and [^3 H] adenosine present in the reaction mixture were separated with the aid of an anion exchanger.

Row | Compound | IC50 (ETB receptor) | IC50 (ETA receptor) | IC50 (phosphodiesterase III) | antagonism to endothelin receptors (endothelin receptors) | inhibitory effect on phosphodiesterase III (phosphodiesterase III)
1 | CCOc1cccc(C(CC)n2nc(C(=O)O)c3c2-c2ccc(OCc4cncnc4)cc2CC3)c1 (stereo not drawn) [Example 34, 4,5-dihydro-1-(3-ethoxy-α-ethylbenzyl)-7-(5-pyrimidinylmethoxy)-[1H]-benz[g]indazole-3-carboxylic acid] | 153 nM | 4.5 nM | 75 nM | excellent antagonism to endothelin receptors | inhibitory effect on phosphodiesterase III
2 | COc1cccc(Cn2nc(C(=O)O)c3c2-c2ccc(OCc4cncnc4)cc2CC3)c1 [Example 2, 4,5-dihydro-1-(3-methoxybenzyl)-7-(5-pyrimidinylmethoxy)-[1H]-benz[g]indazole-3-carboxylic acid] | 140 nM | 31 nM |  |  | 

Stronger by IC50 (ETB receptor), values ahead:

Row | IC50 (ETB receptor) | IC50 (ETA receptor) | IC50 (phosphodiesterase III) | Compound | antagonism to endothelin receptors (endothelin receptors) | inhibitory effect on phosphodiesterase III (phosphodiesterase III)
3 | 115 nM | 16.8 nM |  | CCOc1cccc(Cn2nc(C(=O)O)c3c2-c2ccc(OCc4cncnc4)cc2CC3)c1 [Example 14] |  | 
4 | 92 nM | 7.4 nM |  | CCOCC(c1cccc(OCC)c1)n1nc(C(=O)O)c2c1-c1ccc(OCc3cncnc3)cc1CC2 (stereo not drawn) [Example 41, 4,5-dihydro-1-(3-ethoxy-α-ethoxymethyl-benzyl)-7-(5-pyrimidinylmethoxy)-[1H]-benz[g]indazole-3-carboxylic acid] |  | 
5 | 11.3 nM | 2.5 nM | 580 nM | CCOc1cccc(C(c2ccccn2)n2nc(C(=O)O)c3c2-c2ccc(OCc4cncnc4)cc2CC3)c1 (stereo not shown) [Example 70] | excellent antagonism to endothelin receptors | inhibitory effect on phosphodiesterase III
